By pIC50 is commonly meant the IC50 on a negative log10 scale, so that one unit is a factor of ten.

24 compounds from US8623859B2, “Bradykinin B1 antagonists” (Evotec AG, priority 2008, dated 2014) can be followed below.

The target in this assay is T1, human B1 (Homo sapiens, UniProt P46663).
T1 construct: host or cells: CHO-K1
T1 sequence (P46663 1-353): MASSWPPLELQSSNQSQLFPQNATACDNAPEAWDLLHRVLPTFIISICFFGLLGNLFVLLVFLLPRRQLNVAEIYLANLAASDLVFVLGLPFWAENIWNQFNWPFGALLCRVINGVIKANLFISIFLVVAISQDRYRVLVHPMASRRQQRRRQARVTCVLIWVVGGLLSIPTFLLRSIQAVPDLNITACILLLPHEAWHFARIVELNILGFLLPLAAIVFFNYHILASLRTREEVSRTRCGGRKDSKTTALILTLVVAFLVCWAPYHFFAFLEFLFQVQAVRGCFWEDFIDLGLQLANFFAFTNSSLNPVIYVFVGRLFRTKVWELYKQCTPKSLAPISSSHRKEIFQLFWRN
The assay is described as follows: Calcium flux assay for Bradykinin B1 antagonist, CHO-K1 cell line expressing human B1. It is filed as cell-based. The note with it: CHO-K1 cells expressing human B1, agonist Lys-(Des-Arg)-Bradykinin, read-out: Potency (IC50 value against human B1). The essentials: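 Inhibition of B1 agonist-evoked intracellular Ca2+ rise was followed by continuous fluorescence at 538 nm, with integrated, background-normalized signals plotted versus log compound concentration. Test compounds (eight 10-fold dilutions, triplicate, 1% DMSO final) were added 30 min at 25° C beforehand to Fluo-4AM-loaded human B1 CHO-K1 cells in pH 7.4 assay buffer.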
For orientation: Calcium assays in cells follow changes in intracellular calcium, usually with a dye or a luminescent sensor.

Structures are written as SMILES. pIC50: −log10 of the molar value. Where a name gives a salt, the structure may show the parent alone.

For `COc1cc(C)c(S(=O)(=O)N(C)Cc2nnc(C(=O)N(C)Cc3ccc(CN4CCC(N(C)C)C4)cc3)o2)c(C)c1` (stereo not drawn) [Ex 285, N-(4-{[3-(Dimethylamino)pyrrolidin-1-yl]methyl}benzyl)-5-({[(4-methoxy-2,6-dimethylphenyl)sulfonyl](methyl)amino}methyl)-N-methyl-1,3,4-oxadiazole-2-carboxamide], the pIC50 was 6.00 to 7.00.
The value for `COc1cc(C)c(S(=O)(=O)N(C)Cc2nnc(C(=O)N(C)Cc3nc(CN4CCCC4)cs3)o2)c(C)c1` [Ex 286, 5-({[(4-Methoxy-2,6-dimethylphenyl)sulfonyl](methyl)amino}methyl)-N-methyl-N-{[4-(pyrrolidin-1-ylmethyl)-1,3-thiazol-2-yl]methyl}-1,3,4-oxadiazole-2-carboxamide] was 6.00 to 7.00.
The same measure for `COc1cc(C)c(S(=O)(=O)N(C)Cc2nnc(C(=O)N(C)Cc3ccc(CN4CC(OC)C4)cc3)o2)c(C)c1` [Ex 287, N-{4-[(3-Methoxyazetidin-1-yl)methyl]benzyl}-5-({[(4-methoxy-2,6-dimethylphenyl)sulfonyl](methyl)amino}methyl)-N-methyl-1,3,4-oxadiazole-2-carboxamide]: 6.00 to 7.00.
The value for `COc1cc(C)c(S(=O)(=O)N(C)Cc2nnc(C(=O)N(C)Cc3ccc4c(c3)CN(C)C4)o2)c(C)c1` [Ex 288, 5-({[(4-Methoxy-2,6-dimethylphenyl)sulfonyl](methyl)amino}methyl)-N-methyl-N-[(2-methyl-2,3-dihydro-1H-isoindol-5-yl)methyl]-1,3,4-oxadiazole-2-carboxamide] was 6.00 to 7.00.
On to `COc1cc(C)c(S(=O)(=O)N(C)Cc2nnc(C(=O)N(C)Cc3cccc(CN4CCCC4)c3)o2)c(C)c1` [Ex 289, 5-({[(4-Methoxy-2,6-dimethylphenyl)sulfonyl](methyl)amino}methyl)-N-methyl-N-[3-(pyrrolidin-1-ylmethyl)benzyl]-1,3,4-oxadiazole-2-carboxamide], for which the pIC50 was 7.00 to 8.00.
The same measure for `[2H]C([2H])([2H])N(Cc1nnc(C(=O)N2CCN(CC3CCN(C)CC3)CC2)o1)S(=O)(=O)c1c(C)cc(OC)cc1C` [Ex 291, 4-Methoxy-2,6-dimethyl-N-(^2H3)methyl-N-{[5-({4-[(1-methylpiperidin-4-yl)methyl]piperazin-1-yl}carbonyl)-1,3,4-oxadiazol-2-yl]methyl}benzenesulfonamide trifluoroacetate]: 6.00 to 7.00; for `COc1cc(C)c(S(=O)(=O)N(C)Cc2nnc(C(=O)N3CCN(Cc4c[nH]c(C)n4)CC3)o2)c(C)c1` [Ex 292, 4-Methoxy-N,2,6-trimethyl-N-{[5-({4-[(2-methyl-1H-imidazol-4-yl)methyl]piperazin-1-yl}carbonyl)-1,3,4-oxadiazol-2-yl]methyl}benzenesulfonamide]: > 8.00.
The same measure for `COc1cc(C)c(S(=O)(=O)N(C)Cc2nnc(C(=O)N3CCN(Cc4ccnc(C)c4)CC3)o2)c(C)c1` [Ex 294, 4-Methoxy-N,2,6-trimethyl-N-{[5-({4-[(2-methylpyridin-4-yl)methyl]piperazin-1-yl}carbonyl)-1,3,4-oxadiazol-2-yl]methyl}benzenesulfonamide]: 7.00 to 8.00.
The same measure for `COc1cc(C)c(S(=O)(=O)N(C)Cc2nnc(C(=O)N3CCN(Cc4cccnc4N)CC3)o2)c(C)c1` [Ex 295, N-{[5-({4-[(2-Aminopyridin-3-yl)methyl]piperazin-1-yl}carbonyl)-1,3,4-oxadiazol-2-yl]methyl}-4-methoxy-N,2,6-trimethylbenzenesulfonamide]: > 8.00; for `COc1cc(C)c(S(=O)(=O)N(C)Cc2nnc(C(=O)N3CCN(Cc4cnc5ccccc5c4)CC3)o2)c(C)c1` [Ex 296, 4-Methoxy-N,2,6-trimethyl-N-[(5-{[4-(quinolin-3-ylmethyl)piperazin-1-yl]carbonyl}-1,3,4-oxadiazol-2-yl)methyl]benzenesulfonamide]: > 8.00.
Consider `COc1cc(C)c(S(=O)(=O)N(C)Cc2nnc(C(=O)N3CCN(Cc4ccc(Cl)nc4)CC3)o2)c(C)c1` [Ex 297, N-{[5-({4-[(6-Chloropyridin-3-yl)methyl]piperazin-1-yl}carbonyl)-1,3,4-oxadiazol-2-yl]methyl}-4-methoxy-N,2,6-trimethylbenzenesulfonamide], for which the pIC50 is > 8.00.
The same measure for `COc1cc(C)c(S(=O)(=O)N(C)Cc2noc(C(=O)N(C)Cc3ccc(CN4CCCC4)cc3)n2)c(C)c1` [Ex 300, 3-({[(4-Methoxy-2,6-dimethylphenyl)sulfonyl](methyl)amino}methyl)-N-methyl-N-[4-(pyrrolidin-1-ylmethyl)benzyl]-1,2,4-oxadiazole-5-carboxamide trifluoroacetamide]: > 8.00; for `COc1cc(C)c(S(=O)(=O)N(C)Cc2noc(C(=O)N(C)CCc3ccc(C4=NCCN4)cc3)n2)c(C)c1` [Ex 301, N-{2-[4-(4,5-Dihydro-1H-imidazol-2-yl)phenyl]ethyl}-3-({[(4-methoxy-2,6-dimethylphenyl)sulfonyl](methyl)amino}methyl)-N-methyl-1,2,4-oxadiazole-5-carboxamide trifluoroacetamide]: > 8.00.
The value for `COc1cc(C)c(S(=O)(=O)N(C)Cc2noc(C(=O)N3CCN(C4CCN(C)CC4)CC3)n2)c(C)c1` [Ex 302, 4-Methoxy-N,2,6-trimethyl-N-[(5-{[4-(1-methylpiperidin-4-yl)piperazin-1-yl]carbonyl}-1,2,4-oxadiazol-3-yl)methyl]benzenesulfonamide trifluoroacetate] was 6.00 to 7.00.
The same measure for `COc1cc(C)c(S(=O)(=O)N(C)Cc2noc(C(=O)N3CCN(CC4CCCN(C)C4)CC3)n2)c(C)c1` (stereo not drawn) [Ex 303, 4-Methoxy-N,2,6-trimethyl-N-{[5-({4-[(1-methylpiperidin-3-yl)methyl]piperazin-1-yl}carbonyl)-1,2,4-oxadiazol-3-yl]methyl}benzenesulfonamide trifluoroacetamide]: 6.00 to 7.00; for `COc1cc(C)c(S(=O)(=O)N(C)Cc2noc(C(=O)N3CCN(CCCN4CCCC4)CC3)n2)c(C)c1` [Ex 304, 4-Methoxy-N,2,6-trimethyl-N-[(5-{[4-(3-pyrrolidin-1-ylpropyl)piperazin-1-yl]carbonyl}-1,2,4-oxadiazol-3-yl)methyl]benzenesulfonamide trifluoroacetamide]: 6.00 to 7.00; for `COc1cc(C)c(S(=O)(=O)N(C)Cc2noc(C(=O)N3CCN(CC4CCN(C)CC4)CC3)n2)c(C)c1` [Ex 305, 4-Methoxy-N,2,6-trimethyl-N-{[5-({4-[(1-methylpiperidin-4-yl)methyl]piperazin-1-yl}carbonyl)-1,2,4-oxadiazol-3-yl]methyl}benzenesulfonamide trifluoroacetate]: > 8.00.
Turning to `COc1cc(C)c(S(=O)(=O)N(Cc2noc(C(=O)N(C)Cc3ccc(CN4CCCC4)cc3)n2)C2CC2)c(C)c1` [Ex 306, 3-({Cyclopropyl[(4-methoxy-2,6-dimethylphenyl)sulfonyl]amino}methyl)-N-methyl-N-[4-(pyrrolidin-1-ylmethyl)benzyl]-1,2,4-oxadiazole-5-carboxamide trifluoroacetate], the pIC50 was > 8.00.
The value for `COc1cc(C)c(S(=O)(=O)N(Cc2noc(C(=O)N(C)Cc3nc(CN4CCCC4)cs3)n2)C2CC2)c(C)c1` [Ex 307, 3-({Cyclopropyl[(4-methoxy-2,6-dimethylphenyl)sulfonyl]amino}methyl)-N-methyl-N-{[4-(pyrrolidin-1-ylmethyl)-1,3-thiazol-2-yl]methyl}-1,2,4-oxadiazole-5-carboxamide trifluoroacetate] was 7.00 to 8.00.
The value for `COc1cc(C)c(S(=O)(=O)N(C)Cc2noc(C(=O)N3CCN(CCN4CCCC4)CC3)n2)c(C)c1` [Ex 308, 4-Methoxy-N,2,6-trimethyl-N-[(5-{[4-(2-pyrrolidin-1-ylethyl)piperazin-1-yl]carbonyl}-1,2,4-oxadiazol-3-yl)methyl]benzenesulfonamide] was 6.00 to 7.00; that for `COc1cc(C)c(S(=O)(=O)N(C)Cc2noc(C(=O)N3CCN(CCCN(C)C)CC3)n2)c(C)c1` [Ex 309, N-{[5-({4-[3-(Dimethylamino)propyl]piperazin-1-yl}carbonyl)-1,2,4-oxadiazol-3-yl]methyl}-4-methoxy-N,2,6-trimethylbenzenesulfonamide] was 7.00 to 8.00; that for `COc1cc(C)c(S(=O)(=O)N(C)Cc2noc(C(=O)N3CCC(CCN4CCCC4)CC3)n2)c(C)c1` [Ex 310, 4-Methoxy-N,2,6-trimethyl-N-[(5-{[4-(2-pyrrolidin-1-ylethyl)piperidin-1-yl]carbonyl}-1,2,4-oxadiazol-3-yl)methyl]benzenesulfonamide] was > 8.00.
Consider `COc1cc(C)c(S(=O)(=O)N(Cc2noc(C(=O)N3CCN(C4CCN(C)CC4)CC3)n2)C2CC2)c(C)c1` [Ex 311, N-Cyclopropyl-4-methoxy-2,6-dimethyl-N-[(5-{[4-(1-methylpiperidin-4-yl)piperazin-1-yl]carbonyl}-1,2,4-oxadiazol-3-yl)methyl]benzenesulfonamide], for which the pIC50 was > 8.00.
The value for `COc1cc(C)c(S(=O)(=O)N(Cc2noc(C(=O)N3CCC(CCN4CCCC4)CC3)n2)C2CC2)c(C)c1` [Ex 312, N-Cyclopropyl-4-methoxy-2,6-dimethyl-N-[(5-{[4-(2-pyrrolidin-1-ylethyl)piperidin-1-yl]carbonyl}-1,2,4-oxadiazol-3-yl)methyl]benzenesulfonamide] was > 8.00.
